According to US8507460B2, “Substituted 3′,5′-cyclic phosphates of purine nucleotide compounds and pharmaceutical compositions for the treatment of viral infections” (priority 2011, dated 2013):
Like-named read-outs stand apart in the source and are kept apart here.

Tests used:
[1] = Plasma and liver pharmacokinetics following a single oral dose in monkeys (Example 6); type: in vivo; conditions: cynomolgus monkey; for AUC(0-t) / Cmax / Tmax: Cynomolgus monkeys, single oral dose (mg/kg per Table 6: 1a 10, A 25, B 10, C 10, D 50); for AUC(0-t) / Cmax: normalized to 1 μmol/kg dose; for AUC(0-t): read-out: Plasma prodrug AUC0-24; for Cmax: read-out: Plasma prodrug Cmax; for Tmax: read-out: Plasma prodrug Tmax
Protocol: […] Untreated animals were used for the collection of control liver. Plasma samples were collected at 1, 2, 4, 6, 8, 12 and 24 hours for all compounds and additionally at 0.5 hour (Compounds 1a, B and D), 3 and 10 hours (Compound C), and 32 and 48 hours post dose for Compound A. Terminal liver samples were collected from three animals per time point at 6, 12 and 24 hours post dose for all compounds and additionally at 2 hours (Compounds 1a, B and D), 3 hours (Compound C) and 32 and 48 hours post dose for Compound A. Liver specimens were collected from all animals immediately after the incision. Freezing forceps stored in liquid nitrogen were used to freeze the liver before excision.
(§1) Plasma samples were analyzed for the prodrug and 2′-methylguanosine (2′-MeG) or relevant nucleoside by LC-MS/MS. For protein precipitation and extraction, each plasma sample (50 μL) was treated with 500 μL of 0.2% formic acid in acetonitrile and 20 μL of an appropriate internal standard working solution. After vortexing and centrifugation, 500 μL of the sample extracts were transferred to a new plate, dried under N2 at ˜28° C. and reconstituted with 75 μL of 0.2% FA in water. The extracts were chromatographed on an Aquasil C18 column using a gradient system of 0.2% formic acid in water and acetonitrile. The analytes were detected and quantified by tandem mass spectrometry in positive ion mode on an MDS Sciex API5000 or an API4000 equipped with a Turbo Ionspray® interface. The calibration range was 0.500 (LLOQ) to 200 ng/mL in mouse plasma. The corresponding range for molar units is 1.68 to 673 pmol/mL.
(§2) Liver samples were analyzed for the active species 2′-methylguanosine triphosphate (2′-MeGTP) or relevant nucleoside triphosphate by LC-MS/MS. The triphosphate levels were assayed by homogenizing (on ice) a known weight of mouse liver with 4× volume of 0.95 M trichloroacetic acid (TCA). Appropriate internal standard solution was added to the homogenate followed by neutralization with 20% ammonium hydroxide solution and addition of 500 μL 1% formic acid. The tissue samples were extracted by weak anion exchange solid phase extraction (SPE). Post extraction, the eluates were evaporated under nitrogen, followed by reconstitution before injection onto the LC-MS/MS system. The samples were chromatographed on a Luna NH2 column using a gradient system of ammonium acetate (1 mM to 20 mM and pH 8.0 to pH 10.0) in water and acetonitrile (70:30). The analyte was detected and quantified by tandem mass spectrometry in positive ion mode on an API4000 equipped with a Turbo Ionspray® interface. The calibration range was 10 to 10000 pmol/mL in mouse liver homogenate (50 to 50000 pmol/g of mouse liver).

[2] = Plasma and liver pharmacokinetics following a single oral dose in mice (Example 6); type: in vivo; conditions: CD-1 mice, oral 25 mg/kg, normalized to 1 μmol/kg dose; 1a average of N = 3
Protocol: For each compound, a single oral dose at 25 mg/kg in PEG 200 (dose volume 5 mL/kg) was administered to [CD-1] mice. Untreated animals were used for the collection of control liver. Terminal liver and plasma samples were collected from three animals per time point at 4, 12 and 24 hours post dose and additionally at 1 hour post dose in one occasion of Compound 1 (see Example 5). Liver specimens were collected from all animals immediately after the incision. Freezing forceps stored in liquid nitrogen were used to freeze the liver before excision.
as §1, §2

`CCOc1nc(N)nc2c1ncn2[C@@H]1O[C@@H]2COP(=O)(OC(C)C)O[C@H]2[C@@]1(C)F` (stereo partly drawn) [Compound A, 6-ethoxy-9-((4aR,6R,7R,7aR)-7-fluoro-2-isopropoxy-7-methyl-2-oxo-tetrahydro-2,5-furo[3,2-d][1,3,2]dioxaphosphinin-6-yl)-9H-purin-2-yl amine] showed an AUC(0-t) ([1]; plasma) of 410 nM·h, a Cmax ([1]; plasma) of 100 nM and a Tmax ([1]; plasma) of 120 min.

In the case of `COc1nc(N)nc2c1ncn2[C@@H]1O[C@H](COP(=O)(N[C@@H](C)C(=O)OCC(C)(C)C)Oc2cccc3ccccc23)[C@@H](O)[C@@]1(C)O` (stereo partly drawn) [Compound B, L-Alanine, N-(2′-C-methyl-6-O-methyl-P-1-naphthalenyl-5′-guanylyl)-, 2,2-dimethylpropyl ester], the AUC(0-t) ([1]; in vivo) is reported as 0.2 nM·h, the Cmax ([1]; in vivo) is reported as 0.2 nM and the Tmax ([1]; in vivo) is reported as 30 min.

For `CC(C)(CO)C(=O)SCCOP(=O)(NCc1ccccc1)OCC1OC(n2cnc3c(=O)[nH]c(N)nc32)C(C)(O)C1O` (stereo not drawn) [Compound C, 2′-C-methyl-guanosine, 5′-[2-[(3-hydroxy-2,2-dimethyl-1-oxopropyl)thio]ethyl N-(phenylmethyl)phosphoramidate], reference compound], the “Nucleoside triphosphate in Liver AUC0-24” value [2] was 290 pmol·h/g, the “Nucleoside triphosphate in Liver Cmax” value [2] was 19 pmol/g and the “Plasma prodrug Tmax” value ([1]; in vivo, po) was 360 min.

With `CC(C)OC(=O)[C@H](C)N[P@](=O)(OC[C@H]1O[C@@H](n2ccc(=O)[nH]c2=O)[C@](C)(F)[C@@H]1O)Oc1ccccc1` [Compound D, L-Alanine, N—((P(S),2′R)-2′-deoxy-2′-fluoro-2′-methyl-P-phenyl-5′-uridylyl)-, 1-methylethyl ester] the AUC(0-t) ([1]; in vivo) was 3.5 nM·h, the Cmax ([1]; in vivo) was 1.2 nM and the Tmax ([1]; in vivo) was 30 min.
